Assay results as given in US20170000908A1, “A MICELLAR PARTICLE” (AGENCY FOR SCIENCE, TECHNOLOGY AND RESEARCH, priority 2013, published 2017).

Key:
[1] = Photoluminescence lifetime by Time Correlated Single Photon Counting (TCSPC); type: physicochemical; settings: dye in THF; excited at 405 nm
Method: The photoluminescence lifetimes of the Coumarin545T@SiO2 and DCJTB@SiO2 samples were measured using a Time Correlated Single Photon Counting (TCSPC) module (PicoQuant PicoHarp 300 of PicoQuant of Berlin, Germany). The Coumarin545T@SiO2 and DCJTB@SiO2 samples were excited by using 405 nm line of a picosecond pulsed laser diode (PicoQuant PDL 800-B). The photoluminescence was dispersed through a monochromator (Acton SpectroPro 2300i) and detected with a micro channel plate photomultiplier tube (MCP-PMT) detector (Hamamatsu R3809U-50).
FIG. 4 is a graph showing the time-resolved photoluminescence decay of Coumarin545T dissolved in THF and that when encapsulated inside the core of the nanocapsules. FIG. 5 is a graph showing the time-resolved photoluminescence decay of DCJTB dissolved in THF and that when encapsulated inside the core of the nanocapsules. […] Based on these figures, when compared to the photoluminescence behavior of the dye solutions (Coumarin545T or DCJTB) in their respective solvents, there is a significant red-shift in the emission peak for both of the silica nanocapsules, which should be ascribed to the π-π stacking of the dye molecules by encapsulation. The emission spectra of the nanocapsules are also broader than the dye solutions in their respective solvents. […]

[2] = UV-Vis and photoluminescent spectra (emission peak, fwhm); type: physicochemical; settings: dye in THF
From the text: The UV-Vis and photoluminescent spectra of Coumarin545T@SiO2 are shown in FIG. 2 while those of DCJTB@SiO2 are shown in FIG. 3.
FIG. 4 is a graph showing the time-resolved photoluminescence decay of Coumarin545T dissolved in THF and that when encapsulated inside the core of the nanocapsules. FIG. 5 is a graph showing the time-resolved photoluminescence decay of DCJTB dissolved in THF and that when encapsulated inside the core of the nanocapsules. […] Based on these figures, when compared to the photoluminescence behavior of the dye solutions (Coumarin545T or DCJTB) in their respective solvents, there is a significant red-shift in the emission peak for both of the silica nanocapsules, which should be ascribed to the π-π stacking of the dye molecules by encapsulation. The emission spectra of the nanocapsules are also broader than the dye solutions in their respective solvents. The silica coating could lead to improvement in the photostability of the dye molecules by limiting their contact with the outside environment, especially soluble oxygen molecules.

[3] = Quantum yield measured against fluorescence standard solutions; type: physicochemical; settings: dye in THF
Method: Quantum yield was measured with respect to the fluorescence standard solution, namely fluorescein (Ethanol; QY=0.79), and rhodamine B (Ethanol; QY=0.49). Fluorescein was used as a reference for Coumarin545T@SiO2, whereas rhodamine B was used for DCJTB@SiO2. The procedures involved diluting the fluorescent silica nanocapsules and the fluorescence standard solution with their respective solvent to have the same absorbance at excitation wavelength (460 nm for fluorescein; 490 nm for rhodamine B). Quantum yields for fluorescent silica nanocapsules were measured by dividing, the integrated emission area of their fluorescent spectrum against that of fluorecein or rhodamine B in Ethanol. […] In addition, the lifetime of Coumarin545T@SiO2 was determined to be 3.38 ns, while the lifetime of coumarin545T in THF was determined to be 2.86 ns. Similarly, the lifetime of DCJTB@SiO2 was determined to be 3.40 ns, while the lifetime of DCJTB in THF was determined to be 2.50 ns.

[4] = Ethanol; cited from earlier work

## CC(C)(C)C1=CC(=C(C#N)C#N)C=C(/C=C/c2cc3c4c(c2)C(C)(C)CCN4CCC3(C)C)O1 [DCJTB]
[1]
  Fluorescence Lifetime (τ): 2.50 ns
[2]
  fwhm: 73 nm
  λem: 605 nm
[3]
  Quantum Yield (QY): 0.99

## CC1(C)CCN2CCC(C)(C)c3c2c1cc1cc(-c2nc4ccccc4s2)c(=O)oc31 [Coumarin 545T]
[1]
  Fluorescence Lifetime (τ): 2.86 ns
[2]
  fwhm: 35 nm
  λem: 504 nm
[3]
  Quantum Yield (QY): 0.99

## CCN(CC)c1ccc2c(-c3ccccc3C(=O)O)c3ccc(=[N+](CC)CC)cc-3oc2c1.[Cl-] [rhodamine B]
[4]
  Quantum yield (QY) of fluorescence standard solution: 0.49
